The values below come from patent publication US20060104951A1, “Akt and regulation of RA synovial fibroblast apoptosis” (priority 2004, published 2006).

In data set [1] the test system is rheumatoid arthritis synovial fibroblasts (RASF). The experiment in a line: ATPlite-M cytotoxicity assay in RASF. The note with it: wortmannin alone, 18 hours. A general note: ATP-based viability assays read luminescence as a measure of living cells.
The target in data set [2] is T1, Akt (Homo sapiens, UniProt P31749). Details: many cells; H2O2-treated B cells. The note with it: Cell: Many; cited from earlier work.
For data set [3], the target named is T1, Akt. To be noted: Cell: HL-60 K562; cited from earlier work.
Data set [4] has as its system Akt. The experiment in a line: Akt kinase assay (immunoprecipitated Akt, GSK-3 fusion protein substrate) in OASF. It is filed as cell-based, human. The note with it: TNF-α 10 ng/ml. The method, then:
Active Akt phosphorylates GSK-3 at […].
Akt kinase assay of RA synovial fibroblasts is performed using Akt kinase assay kit according to the protocol provided by manufacturer (New England Biolabs, Beverly, Mass.). Briefly, three hundreds micrograms of total proteins from RA synovial fibroblasts are added into Akt antibody coated beads, incubated at 4° C. for 3 hours followed by washing. Phosphorylation of GSK-3 is used as an indicator of phosphorylated Akt, since Akt negatively regulates GSK-3a/b kinase activity via phosphorylation of GSK-3 at […]. After the kinase reaction, the reaction mixture is electrophoresed on a 12% SDS-PAGE gel and western blotted. The blots are probed with an anti-phospho-GSK-3a/b (Ser219) antibody (rabbit polyclonal IgG, affinity purified).

For data set [5], the system named is phosphorylated Akt (Thr308). As to the kind of experiment: Immunohistochemical staining of phosphorylated Akt in primary RASF. The note with it: TNF-α 10 ng/ml alone vs PBS, 18 hours.
Method: To determine if this TNF-α survival signal involves a PI 3-kinase dependent mechanism, RASF and OASF are treated with TNF-α (10 ng/ml), using PBS as a control, in the presence and absence of the PI 3-kinase inhibitor, wortmannin (50 nM). After 18 hours, the synovial fibroblasts are stained using an antibody specific for phosphorylated-Akt.
The in-situ expression of phosphorylated-Akt is determined by staining fixed cells with an antibody specific for Thr308 phosphorylated Akt (New England Biolabs, Beverly, Mass.). Quenching of endogenous peroxidase is performed by incubating tissue sections with 3% H2O2 at RT for 10 min in a humidified chamber. After washing with PBS, tissue sections are incubated with 0.1% trypsin at 37° C. for 10 min to reveal fixed antigen epitopes. Tissue sections are then treated with denaturing solution at 20° C. for 30 min and blocking solution at RT for 10 min followed by incubation with a horseradish peroxidase (HRP) conjugated antibody specific for phosphorylated-Akt antibody (New England Biolabs, Beverly, Mass.). Slides are incubated with DAB staining kit (DAKO) for color development then counterstained with methyl green. At least 5 areas from each specimen are chosen randomly for assessment of the percentage of Akt-positive cells.
A further data set has as its system phosphorylated Akt. As to the kind of experiment: Western blot of phosphorylated-Akt in RASF lysates. The note with it: TNF-α 10 ng/ml alone. Background: A western blot detects proteins with antibodies after separation by electrophoresis.
Data set [6] has as its target T1, Akt. Details: many cells; H2O2-treated B cells. The note with it: Cell: IL-2 activated T cell; cited from earlier work.

Like-named read-outs stand apart in the source and are kept apart here.

T1 sequence (P31749 whole entry): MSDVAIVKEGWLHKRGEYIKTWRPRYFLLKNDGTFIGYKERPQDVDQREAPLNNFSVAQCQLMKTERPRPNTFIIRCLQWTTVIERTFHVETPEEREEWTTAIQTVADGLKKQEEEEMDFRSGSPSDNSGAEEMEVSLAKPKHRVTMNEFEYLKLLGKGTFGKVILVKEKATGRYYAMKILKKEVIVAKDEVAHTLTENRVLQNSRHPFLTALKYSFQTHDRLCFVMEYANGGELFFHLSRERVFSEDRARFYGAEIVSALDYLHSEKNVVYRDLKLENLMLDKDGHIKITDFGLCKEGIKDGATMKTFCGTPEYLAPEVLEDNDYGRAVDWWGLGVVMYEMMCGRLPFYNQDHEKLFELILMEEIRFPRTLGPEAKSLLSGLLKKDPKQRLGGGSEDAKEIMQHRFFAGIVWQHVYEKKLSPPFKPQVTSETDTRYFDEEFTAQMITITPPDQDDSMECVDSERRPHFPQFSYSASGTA

`COC[C@H]1OC(=O)c2coc3c2[C@@]1(C)C1=C(C3=O)[C@@H]2CCC(=O)[C@@]2(C)C[C@H]1OC(C)=O` [wortmannin]: the “cytotoxicity (ATPlite)” value in data set [1] is listed as “Neither treatment with TNF-α nor wortmannin alone could induce cytotoxicity”. For the molecule PDGF, the Action entry at Akt [2] is listed as “Activates Akt”. On to `Cc1ccc(NC(=O)c2ccc(CN3CCN(C)CC3)cc2)cc1Nc1nccc(-c2cccnc2)n1` [CGP57148B], for which the Action result at Akt [3] is “Block Akt”. In the case of tumor necrosis factor-alpha [TNF-α], the Akt kinase activity entry in the data set with Akt [4] is reported as “did not induce Akt kinase activity”. In data set [5], the “production of phosphorylated Akt (immunohistochemical staining)” value is “greatly enhanced production of phosphorylated Akt”. The “levels of phosphorylated-Akt (Western blot)” value in the data set with phosphorylated Akt is recorded as “marked increase”. As to `C[S+]([O-])c1ccc(-c2nc(-c3ccncc3)c(-c3ccc(F)cc3)[nH]2)cc1` (centres unmarked) [SB 203580], the Action entry at Akt [6] was “Block Akt”. As to “Insulin-like growth factor-1: growth factor known to activate Akt”, the Action result with Akt [2] is “Activates Akt”.
